Results: patent US11459315B2, “Modulators of methyl modifying enzymes, compositions and uses thereof” (Constellation Pharmaceuticals, Inc., priority 2017, dated 2022)
Like-named read-outs stand apart in the source and are kept apart here.

Experiments:
PRC2 containing wt EZH2 = PRC2 containing wt EZH2 (Homo sapiens (Human), UniProt Q15910); assay: EZH2 biochemical assay (IC50), 3H-SAM incorporation into biotinylated H3 peptide
Summary of the method: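 The PRC2 pentamer with wt EZH2 (30 pM) was pre-incubated for 3-5 h with 450 nM SAM plus 450 nM ³H-SAM, 2 µM H3K27me3 activating peptide and compound (0.8% DMSO) in Tris at pH 8.5. Biotinylated H3K27me1 peptide was added and the reaction ran 18-22 h at RT. Incorporated ³H was captured on streptavidin plates, and IC50 was taken from a four-parameter fit.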

[1] = system: H3K27me3 mark in HeLa cells (EZH2); assay: H3K27me3 Alpha Hela Assay (AlphaLISA); type: cell-based; details: HeLa cells, 72 hrs, read-out: EZH2 Cell H3K27me3 Alpha HeLa (EC50 K27me3)
Summary of the method: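 HeLa cells (1,000/well) treated with ten 3-fold compound doses for 72 h at 37 °C; lysates extracted and H3K27me3 detected by AlphaLISA with anti-K27me3 acceptor beads, biotinylated anti-H3 (3 nM) and streptavidin donor beads. EC50 from DMSO-normalized dose-response curves; duplicate plate assessed viability.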

[2] = 30 pM PRC2 containing wt EZH2; 3-5 h pre-incubation; read-out: EZH2 (IC50)
[3] = EZH2 (IC50), 30 pM PRC2 containing wt EZH2; 3-5 h pre-incubation
[4] = read-out: EZH2 (IC50); 30 pM PRC2 containing wt EZH2; 3-5 h pre-incubation

Sequence of PRC2 containing wt EZH2 (Q15910 whole entry): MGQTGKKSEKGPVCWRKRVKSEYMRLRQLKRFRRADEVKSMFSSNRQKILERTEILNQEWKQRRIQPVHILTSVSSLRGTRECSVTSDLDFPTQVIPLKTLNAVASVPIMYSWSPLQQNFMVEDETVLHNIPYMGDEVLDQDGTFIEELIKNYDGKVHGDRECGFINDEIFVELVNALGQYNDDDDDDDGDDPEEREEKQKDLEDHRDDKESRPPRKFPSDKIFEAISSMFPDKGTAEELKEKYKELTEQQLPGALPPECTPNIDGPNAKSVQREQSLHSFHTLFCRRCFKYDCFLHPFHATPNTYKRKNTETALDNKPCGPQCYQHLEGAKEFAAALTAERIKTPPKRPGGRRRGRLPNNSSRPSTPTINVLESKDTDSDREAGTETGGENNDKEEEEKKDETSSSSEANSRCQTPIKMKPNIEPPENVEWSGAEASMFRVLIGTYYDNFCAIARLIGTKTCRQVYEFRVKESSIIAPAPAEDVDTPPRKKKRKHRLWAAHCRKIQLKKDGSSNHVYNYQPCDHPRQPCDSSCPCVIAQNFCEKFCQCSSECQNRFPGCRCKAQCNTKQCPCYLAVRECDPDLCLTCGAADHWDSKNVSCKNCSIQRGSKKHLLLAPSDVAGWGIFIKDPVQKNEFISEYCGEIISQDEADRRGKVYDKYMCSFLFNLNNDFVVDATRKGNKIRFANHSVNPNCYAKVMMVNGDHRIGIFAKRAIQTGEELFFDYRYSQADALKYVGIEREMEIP
Sequence of PRC2 containing wt EZH2 (O75530 whole entry partner): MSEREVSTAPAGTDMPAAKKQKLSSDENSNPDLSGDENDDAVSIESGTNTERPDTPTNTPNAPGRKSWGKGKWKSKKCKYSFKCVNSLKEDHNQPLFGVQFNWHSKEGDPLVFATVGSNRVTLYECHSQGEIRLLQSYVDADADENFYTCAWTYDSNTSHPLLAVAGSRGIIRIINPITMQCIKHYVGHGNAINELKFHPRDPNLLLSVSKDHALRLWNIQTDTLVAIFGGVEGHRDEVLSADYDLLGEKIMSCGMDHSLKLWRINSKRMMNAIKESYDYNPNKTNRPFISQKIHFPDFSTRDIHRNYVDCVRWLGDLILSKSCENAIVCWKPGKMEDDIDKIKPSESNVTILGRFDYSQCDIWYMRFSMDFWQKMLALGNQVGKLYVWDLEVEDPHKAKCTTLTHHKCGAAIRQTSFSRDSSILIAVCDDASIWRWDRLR
Sequence of PRC2 containing wt EZH2 (Q15022 whole entry partner): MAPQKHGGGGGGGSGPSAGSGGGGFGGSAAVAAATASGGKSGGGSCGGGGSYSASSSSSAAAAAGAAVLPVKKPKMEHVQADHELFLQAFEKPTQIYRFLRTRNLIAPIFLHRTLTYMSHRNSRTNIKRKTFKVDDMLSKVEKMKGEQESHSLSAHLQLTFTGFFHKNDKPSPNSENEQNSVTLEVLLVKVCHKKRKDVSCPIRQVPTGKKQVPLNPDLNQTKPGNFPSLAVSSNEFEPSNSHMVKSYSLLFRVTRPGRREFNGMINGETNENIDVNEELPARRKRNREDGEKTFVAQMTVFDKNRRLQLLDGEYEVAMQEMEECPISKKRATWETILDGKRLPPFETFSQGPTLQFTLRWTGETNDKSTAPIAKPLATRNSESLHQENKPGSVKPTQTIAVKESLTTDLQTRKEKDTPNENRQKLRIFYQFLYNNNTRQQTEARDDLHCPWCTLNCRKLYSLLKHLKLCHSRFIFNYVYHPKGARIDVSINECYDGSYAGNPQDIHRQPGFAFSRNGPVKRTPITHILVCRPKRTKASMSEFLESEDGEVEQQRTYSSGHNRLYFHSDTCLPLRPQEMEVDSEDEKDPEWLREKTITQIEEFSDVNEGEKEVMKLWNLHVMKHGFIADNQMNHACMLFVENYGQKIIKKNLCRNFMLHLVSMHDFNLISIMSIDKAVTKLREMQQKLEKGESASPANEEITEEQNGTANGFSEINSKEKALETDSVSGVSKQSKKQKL
Sequence of PRC2 containing wt EZH2 (Q09028 whole entry partner): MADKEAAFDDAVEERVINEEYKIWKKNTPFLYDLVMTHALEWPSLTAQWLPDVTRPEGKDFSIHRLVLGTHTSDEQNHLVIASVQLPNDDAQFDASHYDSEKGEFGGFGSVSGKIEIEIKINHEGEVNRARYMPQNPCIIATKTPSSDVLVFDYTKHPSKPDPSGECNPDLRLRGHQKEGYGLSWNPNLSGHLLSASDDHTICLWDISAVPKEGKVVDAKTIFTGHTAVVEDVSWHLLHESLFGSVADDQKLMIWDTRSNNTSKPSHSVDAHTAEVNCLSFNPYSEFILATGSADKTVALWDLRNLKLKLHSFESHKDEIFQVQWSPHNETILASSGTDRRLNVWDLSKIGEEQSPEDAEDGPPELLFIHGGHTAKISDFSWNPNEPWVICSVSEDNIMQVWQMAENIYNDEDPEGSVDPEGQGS
Sequence of PRC2 containing wt EZH2 (Q6ZN18 whole entry partner): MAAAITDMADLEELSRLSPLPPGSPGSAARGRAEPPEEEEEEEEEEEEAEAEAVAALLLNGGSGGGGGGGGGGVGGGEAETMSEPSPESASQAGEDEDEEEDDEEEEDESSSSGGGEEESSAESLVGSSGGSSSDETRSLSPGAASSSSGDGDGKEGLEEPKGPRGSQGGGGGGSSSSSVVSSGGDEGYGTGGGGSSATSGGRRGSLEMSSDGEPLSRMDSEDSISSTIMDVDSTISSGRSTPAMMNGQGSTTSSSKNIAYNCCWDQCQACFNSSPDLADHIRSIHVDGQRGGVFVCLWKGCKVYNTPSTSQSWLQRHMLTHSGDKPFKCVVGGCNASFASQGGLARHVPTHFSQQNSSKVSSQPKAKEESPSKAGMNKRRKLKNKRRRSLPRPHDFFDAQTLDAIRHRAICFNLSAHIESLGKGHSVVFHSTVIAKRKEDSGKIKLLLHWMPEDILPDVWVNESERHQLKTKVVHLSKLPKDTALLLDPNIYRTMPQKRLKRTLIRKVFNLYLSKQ

Row | SMILES | IC50 (PRC2 containing wt EZH2; [2]) [nM] | EC50 ([1]; Homo sapiens, HeLa, 72 h) [nM] | IC50 (PRC2 containing wt EZH2; [3]) [nM] | EC50 [1] [nM] | further results
1 | CSc1cc(C)[nH]c(=O)c1CNC(=O)c1c(C)n([C@H](C)C2CCC(NC(C)(C)C)CC2)c2ccccc12 (stereo partly drawn) [Example 61, (R)-1-(1-(4-(tert-butylamino)cyclohexyl)ethyl)-2-methyl-N-((6-methyl-4-(methylthio)-2-oxo-1,2-dihydropyridin-3-yl)methyl)-1H-indole-3-carboxamide] | < 0.5 | 10 to 100 |  |  | 
2 | CSc1cc(C)[nH]c(=O)c1CNC(=O)c1c(C)n([C@H](C)C2CCN(C3CC(F)C3)CC2)c2ncccc12 (stereo partly drawn) [Example 66, (R)-1-(1-(1-(3-fluorocyclobutyl)piperidin-4-yl)ethyl)-2-methyl-N-((6-methyl-4-(methylthio)-2-oxo-1,2-dihydropyridin-3-yl)methyl)-1H-pyrrolo[2,3-b]pyridine-3-carboxamide] |  | 10 to 100 | < 0.5 |  | 
3 | COCCOC1CCC([C@@H](C)n2c(C)c(C(=O)NCc3c(SC)cc(C)[nH]c3=O)c3ccccc32)CC1 (single isomer, unassigned) [67 (isomer 1)] |  | 10 to 100 |  |  | IC50 (PRC2 containing wt EZH2; [4]): < 0.5 nM
4 | CSc1cc(C)[nH]c(=O)c1CNC(=O)c1c(C)n([C@H](C)c2cnc(C)nc2)c2ccccc12 [Example 35, (R)-2-methyl-N-((6-methyl-4-(methylthio)-2-oxo-1,2-dihydropyridin-3-yl)methyl)-1-(1-(2-methylpyrimidin-5-yl)ethyl)-1H-indole-3-carboxamide] | > 5 | > 100 |  |  | 
5 | CSc1cc(C)[nH]c(=O)c1CNC(=O)c1c(C)n([C@H](C)C2CCC(N3CC(OC4CC4)C3)CC2)c2ncc(F)cc12 (single isomer, unassigned) [28 (isomer 1)] | < 0.5 | < 10 |  |  | 
6 | CSc1cc(C)[nH]c(=O)c1CNC(=O)c1c(C)n([C@H](C)C2CCC(NC3(C)CCOC3)CC2)c2ccccc12 (single isomer, unassigned) [149 (isomer 1)] | < 0.5 | 10 to 100 |  |  | 
7 | CSc1cc(C)[nH]c(=O)c1CNC(=O)c1c(C)n([C@H](C)C2CCC(OC3COC3)CC2)c2ccccc12 (single isomer, unassigned) [137 (isomer 2)] |  |  |  | < 10 | IC50 (PRC2 containing wt EZH2; [4]): < 0.5 nM
8 | COCCN(C)C1COC([C@@H](C)n2c(C)c(C(=O)NCc3c(SC)cc(C)[nH]c3=O)c3ccccc32)OC1 (single isomer, unassigned) [16 (isomer 2)] | > 5 |  |  | > 100 | 
9 | CSc1cc(C)[nH]c(=O)c1CNC(=O)c1c(C)n([C@H](C)C2CCC(O)CC2)c2ncc(Cl)cc12 (single isomer, unassigned) [53 (isomer 2)] |  |  |  | < 10 | IC50 (PRC2 containing wt EZH2; [4]): < 0.5 nM
10 | CSc1cc(C)[nH]c(=O)c1CNC(=O)c1c(C)n([C@H](C)C2CCC(N3CC(C#N)C3)CC2)c2ccccc12 (single isomer, unassigned) [138 (isomer 1)] |  | 10 to 100 | 0.5 to 5 |  | 
11 | CSc1cc(C)[nH]c(=O)c1CNC(=O)c1c(C)n([C@H](C)C2CCC(N3CC(C#N)C3)CC2)c2ccccc12 (single isomer, unassigned) [138 (isomer 2)] |  |  | < 0.5 | 10 to 100 | 
12 | CSc1cc(C)[nH]c(=O)c1CNC(=O)c1c(C)n([C@H](C)C2CCC(N3CC(OC4CC4)C3)CC2)c2ncc(F)cc12 (single isomer, unassigned) [28 (isomer 2)] | < 0.5 |  |  | 10 to 100 | 
13 | CNC1COC([C@@H](C)n2c(C)c(C(=O)NCc3c(SC)cc(C)[nH]c3=O)c3ccccc32)OC1 (stereo partly drawn) [Example 17, (R)-2-methyl-N-((6-methyl-4-(methylthio)-2-oxo-1,2-dihydropyridin-3-yl)methyl)-1-(1-(5-(methylamino)-1,3-dioxan-2-yl)ethyl)-1H-indole-3-carboxamide] | < 0.5 | < 10 |  |  | 
14 | Cc1cc(SC(F)F)c(CNC(=O)c2c(C)n([C@H](C)C3CCN(CC(F)(F)F)CC3)c3ccccc23)c(=O)[nH]1 [Example 105, (R)-N-((4-((difluoromethyl)thio)-6-methyl-2-oxo-1,2-dihydropyridin-3-yl)methyl)-2-methyl-1-(1-(1-(2,2,2-trifluoroethyl)piperidin-4-yl)ethyl)-1H-indole-3-carboxamide] | 0.5 to 5 | 10 to 100 |  |  | 
15 | COC1(C)CN(C2CCC([C@@H](C)n3c(C)c(C(=O)NCc4c(SC)cc(C)[nH]c4=O)c4ccccc43)CC2)C1 (single isomer, unassigned) [90 (isomer 2)] | < 0.5 |  |  | > 100 | 
16 | CSc1cc(C)[nH]c(=O)c1CNC(=O)c1c(C)n([C@H](C)C2CCC(Oc3cnn(C)c3)CC2)c2ncccc12 (single isomer, unassigned) [147 (isomer 2)] | < 0.5 |  |  | < 10 | 

Row | SMILES | IC50 (PRC2 containing wt EZH2; [2]) [nM] | EC50 ([1]; Homo sapiens, HeLa, 72 h) [nM] | IC50 (PRC2 containing wt EZH2; [3]) [nM] | EC50 [1] [nM] | further results
17 | CSc1cc(C)[nH]c(=O)c1CNC(=O)c1c(C)n([C@H](C)C2CCN(C3(C)CC3)CC2)c2ncccc12 [Example 131, (R)-2-methyl-N-((6-methyl-4-(methylthio)-2-oxo-1,2-dihydropyridin-3-yl)methyl)-1-(1-(1-(1-methylcyclopropyl)piperidin-4-yl)ethyl)-1H-pyrrolo[2,3-b]pyridine-3-carboxamide] |  | < 10 | < 0.5 |  | 
18 | CSc1cc(C)[nH]c(=O)c1CNC(=O)c1c(C)n([C@H](C)C2CCC(NC3COC3)CC2)c2ncccc12 (single isomer, unassigned) [62 (isomer 2)] | 0.5 to 5 |  |  |  | EC50 ([1]; listed as 62): > 100 nM
19 | CSc1cc(C)[nH]c(=O)c1CNC(=O)c1c(C)n([C@H](C)C2CCC(N3CC(F)C3)CC2)c2cc(F)ccc12 (stereo partly drawn) [Example 83, (R)-6-fluoro-1-(1-(4-(3-fluoroazetidin-1-yl)cyclohexyl)ethyl)-2-methyl-N-((6-methyl-4-(methylthio)-2-oxo-1,2-dihydropyridin-3-yl)methyl)-1H-indole-3-carboxamide] |  | < 10 | < 0.5 |  | 
20 | COC1CN(C2CCC([C@@H](C)n3c(C)c(C(=O)NCc4c(SC)cc(C)[nH]c4=O)c4ccccc43)CC2)C1 (single isomer, unassigned) [4 (isomer 1)] |  | < 10 | < 0.5 |  | 
21 | CSc1cc(C)[nH]c(=O)c1CNC(=O)c1c(C)n([C@H](C)C2CCC(N3CC(N(C)C)C3)CC2)c2ccccc12 (single isomer, unassigned) [148 (isomer 2)] | < 0.5 |  |  | 10 to 100 | 
22 | CSc1cc(C)[nH]c(=O)c1CNC(=O)c1c(C)n([C@H](C)C2CCN(C3COC3)CC2)c2ccccc12 [Example 133, (R)-2-methyl-N-((6-methyl-4-(methylthio)-2-oxo-1,2-dihydropyridin-3-yl)methyl)-1-(1-(1-(oxetan-3-yl)piperidin-4-yl)ethyl)-1H-indole-3-carboxamide] |  | < 10 | < 0.5 |  | 
23 | CSc1cc(C)[nH]c(=O)c1CNC(=O)c1c(C)n([C@H](C)C2CCC(N3CC(OC4CC4)C3)CC2)c2ncccc12 (single isomer, unassigned) [Example 30] | < 0.5 | < 10 |  |  | 
24 | CSc1cc(C)[nH]c(=O)c1CNC(=O)c1c(C)n([C@H](C)C2CCC(NC3COC3)CC2)c2ccccc12 (single isomer, unassigned) [2 (isomer 2)] | < 0.5 |  |  | 10 to 100 | 
25 | CCOC[C@@H](C)n1c(C)c(C(=O)NCc2c(SC)cc(C)[nH]c2=O)c2ccccc21 [Example 33, (R)-1-(1-ethoxypropan-2-yl)-2-methyl-N-((6-methyl-4-(methylthio)-2-oxo-1,2-dihydropyridin-3-yl)methyl)-1H-indole-3-carboxamide] |  | 10 to 100 | 0.5 to 5 |  | 
26 | CO[C@@H]1CN(C2CCC([C@@H](C)n3c(C)c(C(=O)NCc4c(SC)cc(C)[nH]c4=O)c4cccnc43)CC2)C[C@H]1F (single isomer, unassigned) [104 (isomer 2)] | 0.5 to 5 |  |  | > 100 | 
27 | CSc1cc(C)[nH]c(=O)c1CNC(=O)c1c(C)n([C@H](C)C2CCC(OC3CC3)CC2)c2ccccc12 (stereo partly drawn) [Example 132, 1-((R)-1-(4-cyclopropoxycyclohexyl)ethyl)-2-methyl-N-((6-methyl-4-(methylthio)-2-oxo-1,2-dihydropyridin-3-yl)methyl)-1H-indole-3-carboxamide] |  | < 10 | < 0.5 |  | 
28 | CSc1cc(C)[nH]c(=O)c1CNC(=O)c1c(C)n([C@H](C)C2CCC(N3CC34COC4)CC2)c2ncccc12 (single isomer, unassigned) [139 (isomer 2)] |  |  | 0.5 to 5 | 10 to 100 | 
29 | CSc1cc(C)[nH]c(=O)c1CNC(=O)c1c(C)n([C@H](C)C2OCC(NC3(C)COC3)CO2)c2ccccc12 (single isomer, unassigned) [6 (isomer 2)] | 0.5 to 5 |  |  | > 100 | 
30 | CSc1cc(C)[nH]c(=O)c1CNC(=O)c1c(C)n([C@H](C)C2CCC(OC(=O)C(C)C)CC2)c2ccccc12 (single isomer, unassigned) [144 (isomer 1)] | < 0.5 | < 10 |  |  | 
31 | CSc1cc(C)[nH]c(=O)c1CNC(=O)c1c(C)n([C@@H](C)[C@H]2OC[C@H](N3CCC34COC4)CO2)c2ccccc12 (single isomer, unassigned; isomer 2) [151 (isomer 2)] | > 5 |  |  | > 100 | 
